Our source for the IC50 and EC50 values is patent US20240246964A1 (Arbutus Biopharma Corporation, priority 2021, published 2024).

Some results are limits rather than exact numbers.

The target of test [1] is PD-L1 His protein / PD-1 Fc protein (Homo sapiens (Human), UniProt Q9NZQ7). The test is described as follows: HTRF Assay (PD-1/PD-L1 interaction). To be noted: PD-L1 His 6 nM, PD-1 Fc 6 nM. It counts as binding.
The next test addresses human PD-L1 (Homo sapiens (Human), UniProt Q9NZQ7). Description: T cell activation luciferase reporter cell culture system (T Cell Activation Assay). It is filed as cell-based. The note with it: luciferase reporter assay; PD-L1 aAPC/CHO-K1 cells with PD-1 effector Jurkat T cells.

Chain of human PD-L1 (Q9NZQ7 19-290): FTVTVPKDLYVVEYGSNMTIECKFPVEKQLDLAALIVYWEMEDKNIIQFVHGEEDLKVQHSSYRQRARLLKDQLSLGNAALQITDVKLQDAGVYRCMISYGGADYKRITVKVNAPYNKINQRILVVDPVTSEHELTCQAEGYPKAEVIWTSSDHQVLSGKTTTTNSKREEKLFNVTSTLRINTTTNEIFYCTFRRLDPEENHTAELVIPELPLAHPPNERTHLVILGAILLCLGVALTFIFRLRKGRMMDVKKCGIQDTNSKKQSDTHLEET
Chain of PD-L1 His protein / PD-1 Fc protein (Q9NZQ7 19-238): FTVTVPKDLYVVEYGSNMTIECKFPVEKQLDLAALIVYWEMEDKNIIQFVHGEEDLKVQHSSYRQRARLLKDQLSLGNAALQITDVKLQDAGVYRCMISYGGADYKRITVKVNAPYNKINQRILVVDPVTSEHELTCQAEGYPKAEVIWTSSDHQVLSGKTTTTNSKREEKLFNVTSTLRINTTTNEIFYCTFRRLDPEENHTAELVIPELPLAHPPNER

Take `COc1cc(-c2nccc(-c3cccc(-c4ccc(CNC[C@@H]5CCC(=O)N5)c(OC)n4)c3Cl)c2Cl)cnc1CN[C@H]1CCOC1=O` [Compound 268, (S)-5-((((6-(2-Chloro-3-(3-chloro-5′-methoxy-6′-((((S)-2-oxotetrahydrofuran-3-yl)amino)methyl)-[2,3′-bipyridin]-4-yl)phenyl)-2-methoxypyridin-3-yl)methyl)-amino)methyl)pyrrolidin-2-one]: the IC50 in test [1] amounted to 1.46 nM. Moreover, at human PD-L1, a half-maximal effect (EC50) was put at 669 nM.
For the molecule `COc1cc(-c2nccc(-c3ccnc(-c4cc(F)c(CNC5CCN(C(C)=O)CC5)c(OC)c4)c3Cl)c2Cl)cc(F)c1CNC1CCN(C(C)=O)CC1` [Compound 313, 1,1′-(((((3,3′-Dichloro-[4,4′-bipyridine]-2,2′-diyl)bis(2-fluoro-6-methoxy-4,1-phenylene))bis(methylene))bis(azanediyl))bis(piperidine-4,1-diyl))bis(ethan-1-one)], in test [1], the IC50 amounted to 4.6 nM. In addition, at human PD-L1, the EC50 came to 97.3 nM.
On to `COc1cc(-c2nccc(-c3cccc(-c4ccc(CNC5CCN(C(C)=O)CC5)c(OC)n4)c3Cl)c2Cl)cnc1CNC1CCN(C(C)=O)CC1` [Compound 375, 1-(4-(((6-(3-(6′-(((1-Acetylpiperidin-4-yl)amino)methyl)-3-chloro-5′-methoxy-[2,3′-bipyridin]-4-yl)-2-chlorophenyl)-2-methoxypyridin-3-yl)methyl)amino)piperidin-1-yl)ethan-1-one], for which, in test [1], the IC50 stood at 1.24 nM. This molecule gave an EC50 at human PD-L1 of 46.4 nM.
In test [1], `COc1cc(-c2nccc(-c3cccc(-c4ccc(CN5CC6(CNC(=O)C6)C5)c(OC)n4)c3Cl)c2Cl)cnc1CN1CC2(CNC(=O)C2)C1` [Compound 376, 2-((3-Chloro-4-(2-chloro-3-(6-methoxy-5-((7-oxo-2,6-diazaspiro[3.4]octan-2-yl)methyl)pyridin-2-yl)phenyl)-5′-methoxy-[2,3′-bipyridin]-6′-yl)methyl)-2,6-diazaspiro[3.4]octan-7-one] came in with an IC50 of 0.458 nM. This molecule also returned an EC50 on human PD-L1 of 38.4 nM.
`COc1cc(-c2nccc(-c3cccc(-c4ccc(CN5CC6(C5)CN(C(C)=O)C6)c(OC)n4)c3Cl)c2Cl)cnc1CN1CC2(C1)CN(C(C)=O)C2` [Compound 428, 1-(6-((6-(3-(6′-((6-Acetyl-2,6-diazaspiro[3.3]heptan-2-yl)methyl)-3-chloro-5′-methoxy-[2,3′-bipyridin]-4-yl)-2-chlorophenyl)-2-methoxypyridin-3-yl)methyl)-2,6-diazaspiro[3.3]heptan-2-yl)ethan-1-one]: half-maximal inhibition in test [1] (IC50) was put at 0.77 nM. In addition, the EC50 at human PD-L1 is 51.2 nM.
The matching figures for `COc1cc(-c2nccc(-c3cccc(-c4ccc(CNC5CC6(COC6)C5)c(OC)n4)c3Cl)c2Cl)cnc1CNC1CC2(COC2)C1` (stereo not shown) [Compound 429, N-((4-(3-(5-(((2-Oxaspiro[3.3]heptan-6-yl)amino)methyl)-6-methoxypyridin-2-yl)-2-chlorophenyl)-3-chloro-5′-methoxy-[2,3′-bipyridin]-6′-yl)methyl)-2-oxaspiro[3.3]heptan-6-amine]: 4.1 nM and 71.4 nM.
For the molecule `COc1cc(-c2nccc(-c3cccc(-c4ccc(CN5CC6(CCC(=O)N6)C5)c(OC)n4)c3Cl)c2Cl)cnc1CN1CC2(CCC(=O)N2)C1` [Compound 430, 2-((3-Chloro-4-(2-chloro-3-(6-methoxy-5-((6-oxo-2,5-diazaspiro[3.4]octan-2-yl)methyl)pyridin-2-yl)phenyl)-5′-methoxy-[2,3′-bipyridin]-6′-yl)methyl)-2,5-diazaspiro[3.4]octan-6-one], in test [1], the IC50 was 0.35 nM. At human PD-L1, the EC50 was 23.3 nM.
Regarding `COc1cc(-c2nccc(-c3cccc(-c4ccc(CNC5CCOCC5)c(OC)n4)c3Cl)c2Cl)cnc1CNC1CCOCC1` [Compound 431, N-((6-(2-Chloro-3-(3-chloro-5′-methoxy-6′-(((tetrahydro-2H-pyran-4-yl)amino)methyl)-[2,3′-bipyridin]-4-yl)phenyl)-2-methoxypyridin-3-yl)methyl)tetrahydro-2H-pyran-4-amine], in test [1], half-maximal inhibition (IC50) required 2.03 nM. A half-maximal response on human PD-L1 (EC50) required 106 nM.
As for `COc1cc(-c2cccc(-c3ccnc(-c4cnc(CNC5CCN(C(C)=O)CC5)c(OC)c4)c3Cl)c2Cl)ccc1CNC1CCN(C(C)=O)CC1` [Compound 500, 1-(4-(((4-(4′-(((1-acetylpiperidin-4-yl)amino)methyl)-2-chloro-3′-methoxy-[1,1′-biphenyl]-3-yl)-3-chloro-5′-methoxy-[2,3′-bipyridin]-6′-yl)methyl)amino)piperidin-1-yl)ethan-1-one], the IC50 in test [1] worked out at 1.95 nM. Besides, the half-maximal effective concentration (EC50) at human PD-L1 was 120 nM.
The matching figures for `COc1cc(-c2cccc(-c3ccnc(-c4cnc(CN5CC6(CNC(=O)C6)C5)c(OC)c4)c3Cl)c2Cl)ccc1CN1CC2(CNC(=O)C2)C1` [Compound 501, 2-((3-Chloro-4-(2-chloro-3′-methoxy-4′-((7-oxo-2,6-diazaspiro[3.4]octan-2-yl)methyl)-[1,1′-biphenyl]-3-yl)-5′-methoxy-[2,3′-bipyridin]-6′-yl)methyl)-2,6-diazaspiro[3.4]octan-7-one]: 0.92 nM and 94.1 nM.
`COc1cc(-c2nccc(-c3cccc(-c4ccc(CN5CC6(CNC(=O)C6)C5)c(OC)n4)c3Cl)c2Cl)cnc1CNC1CCN(C(C)=O)CC1` [Compound 547, 2-((6-(3-(6′-(((1-acetylpiperidin-4-yl)amino)methyl)-3-chloro-5′-methoxy-[2,3′-bipyridin]-4-yl)-2-chlorophenyl)-2-methoxypyridin-3-yl)methyl)-2,6-diazaspiro[3.4]octan-7-one]: in test [1], the IC50 turned out to be 0.35 nM. At human PD-L1, the midpoint of the response, the EC50, lay at 69.2 nM.
`COc1cc(-c2nccc(-c3cccc(-c4ccc(CN5CC6(CNC(=O)C6)C5)c(OC)n4)c3Cl)c2Cl)cnc1CNC1CCOCC1` [Compound 548, 2-((6-(2-Chloro-3-(3-chloro-5′-methoxy-6′-(((tetrahydro-2H-pyran-4-yl)amino)methyl)-[2,3′-bipyridin]-4-yl)phenyl)-2-methoxypyridin-3-yl)methyl)-2,6-diazaspiro[3.4]octan-7-one] displayed an IC50 in test [1] of 1.13 nM. This molecule also showed an EC50 at human PD-L1 of 75.9 nM.
On to `COc1cc(-c2nccc(-c3cccc(-c4ccc(CN5CC6(CNC(=O)C6)C5)c(OC)n4)c3Cl)c2Cl)cnc1CNC[C@@H]1CCC(=O)N1` [Compound 550, (S)-2-((6-(2-Chloro-3-(3-chloro-5′-methoxy-6′-((((5-oxopyrrolidin-2-yl)methyl)amino)methyl)-[2,3′-bipyridin]-4-yl)phenyl)-2-methoxypyridin-3-yl)methyl)-2,6-diazaspiro[3.4]octan-7-one], for which the half-maximal inhibitory concentration (IC50) in test [1] turned out to be 0.28 nM. For the same molecule, the response on human PD-L1 was half-maximal at 25 nM (EC50).
In test [1], `COc1cc(-c2nccc(-c3cccc(-c4ccc5c(CNC6CCN(C(C)=O)CC6)cn(C)c5n4)c3Cl)c2Cl)ccc1CNCCO` [Compound 560, 1-(4-(((6-(2-Chloro-3-(3-chloro-2-(4-(((2-hydroxyethyl)amino)methyl)-3-methoxyphenyl)pyridin-4-yl)phenyl)-1-methyl-1H-pyrrolo[2,3-b]pyridin-3-yl)methyl)amino)piperidin-1-yl)ethan-1-one] yielded a half-inhibitory concentration (IC50) of 1.66 nM. This molecule also displayed an EC50 at human PD-L1 of 57.3 nM.
As to `COc1cc(-c2nccc(-c3cccc(-c4ccc5c(CNC6CCOCC6)cn(C)c5n4)c3Cl)c2Cl)ccc1CNC1CCOCC1` [Compound 563, N-((6-(2-Chloro-3-(3-chloro-2-(3-methoxy-4-(((tetrahydro-2H-pyran-4-yl)amino)methyl)phenyl)pyridin-4-yl)phenyl)-1-methyl-1H-pyrrolo[2,3-b]pyridin-3-yl)methyl)tetrahydro-2H-pyran-4-amine], the IC50 in test [1] turned out to be 4.07 nM. The EC50 at human PD-L1 stood at 956 nM.
For `COc1cc(-c2nccc(-c3cccc(-c4ccc5c(CNC6CCN(C(C)=O)CC6)cn(C)c5n4)c3Cl)c2Cl)ccc1CN1CC2(C1)CN(C(C)=O)C2` [Compound 564, 1-(4-(((6-(3-(2-(4-((6-Acetyl-2,6-diazaspiro[3.3]heptan-2-yl)methyl)-3-methoxyphenyl)-3-chloropyridin-4-yl)-2-chlorophenyl)-1-methyl-1H-pyrrolo[2,3-b]pyridin-3-yl)methyl)amino)piperidin-1-yl)ethan-1-one], in that order: 1.46 nM and 260 nM.
`COc1cc(-c2cccc(-c3ccnc(-c4cnc(CNC5CCN(C(C)=O)CC5)c(OC)c4)c3Cl)c2Cl)cnc1CNC1CCN(C(C)=O)CC1` [Compound 567, 1-(4-(((5-(3-(6′-(((1-acetylpiperidin-4-yl)amino)methyl)-3-chloro-5′-methoxy-[2,3′-bipyridin]-4-yl)-2-chlorophenyl)-3-methoxypyridin-2-yl)methyl)amino)piperidin-1-yl)ethan-1-one] registered an IC50 in test [1] of 17.7 nM. Moreover, the EC50 at human PD-L1 is at least 10000 nM.
As for `COc1cc(-c2cccc(-c3ccnc(-c4cnc(CN5CC6(CNC(=O)C6)C5)c(OC)c4)c3Cl)c2Cl)cnc1CN1CC2(CNC(=O)C2)C1` [Compound 569, 2-((3-Chloro-4-(2-chloro-3-(5-methoxy-6-((7-oxo-2,6-diazaspiro[3.4]octan-2-yl)methyl)pyridin-3-yl)phenyl)-5′-methoxy-[2,3′-bipyridin]-6′-yl)methyl)-2,6-diazaspiro[3.4]octan-7-one], it took 0.62 nM to reach half-maximal inhibition in test [1] (IC50). In addition, it took 580 nM to reach a half-maximal effect on human PD-L1 (EC50).
In test [1], `COc1cc(-c2cccc(-c3ccnc(-c4cnc(CNC5CCOCC5)c(OC)c4)c3Cl)c2Cl)cnc1CNC1CCOCC1` [Compound 570, N-((5-(2-Chloro-3-(3-chloro-5′-methoxy-6′-(((tetrahydro-2H-pyran-4-yl)amino)methyl)-[2,3′-bipyridin]-4-yl)phenyl)-3-methoxypyridin-2-yl)methyl)tetrahydro-2H-pyran-4-amine] displayed an IC50 of 18.5 nM. Also, the EC50 at human PD-L1 was at least 10000 nM.
The matching figures for `COc1nc(-c2cccc(-c3nccc(-c4ccc(CNC5CCN(C(C)=O)CC5)c(OC)n4)c3Cl)c2Cl)ccc1CNC1CCN(C(C)=O)CC1` [Compound 572, 1-(4-(((6-(3-(5-(((1-Acetylpiperidin-4-yl)amino)methyl)-3′-chloro-6-methoxy-[2,4′-bipyridin]-2′-yl)-2-chlorophenyl)-2-methoxypyridin-3-yl)methyl)amino)piperidin-1-yl)ethan-1-one]: 0.19 nM and 17.4 nM.
